Test results published in patent publication US20040102423A1, “Spironolactone and angiotensin II antagonist combination therapy for treatment of congestive heart failure” (G.D. Searle & Co., priority 1995, published 2004).
Like-named read-outs stand apart in the source and are kept apart here.

Experiments:
[1] = molecular target: angiotensin II AT1 receptor; test: Assay A: Angiotensin II binding activity, rat uterine membrane preparation, 125I-AII displacement
[2] = system: rabbit aortic rings; test: Assay B: In vitro vascular smooth muscle response for AII (antagonist activity, pA2); type: cell-based; conditions: Oryctolagus cuniculus, two values in a cell = two determinations
Procedure: Assay B: In Vitro Vascular Smooth Muscle-Response for AII
The compounds of the invention were tested for antagonist activity in rabbit aortic rings. Male New Zealand white rabbits (2-2.5 kg) were sacrificed using an overdose of pentobarbital and exsanguinated via the carotid arteries. The thoracic aorta was removed, cleaned of adherent fat and connective tissue and then cut into 3-mm ring segments. The endothelium was removed from the rings by gently sliding a rolled-up piece of filter paper into the vessel lumen. The rings were then mounted in a water-jacketed tissue bath, maintained at 37° C., between moveable and fixed ends of a stainless steel wire with the moveable end attached to an FT03 Grass transducer coupled to a Model 7D Grass Polygraph for recording isometric force responses. The bath was filled with 20 ml of oxygenated (95% oxygen/5% carbon dioxide) Krebs solution of the following composition (mM): 130 NaCl, 15 NaHCO3, […], 1.2 NaH2PO4, 1.2 MgSO4, 2.5 CaCl2, and 11.4 glucose. The preparations were equilibrated for one hour before approximately one gram of passive tension was placed on the rings. Angiotensin II concentration-response curves were then recorded (3×10^−10 to 1×10^−5 M). Each concentration of AII was allowed to elicit its maximal contraction, and then AII was washed out repeatedly for 30 minutes before rechallenging with a higher concentration of AII. Aorta rings were exposed to the test antagonist at 10^−5 M for 5 minutes before challenging with AII. Adjacent segments of the same aorta ring were used for all concentration-response curves in the presence or absence of the test antagonist. The effectiveness of the test compound was expressed in terms of pA2 values and were calculated according to H. O. Schild [Br. J. Pharmacol. Chemother., 2, 189-206 (1947)]. The pA2 value is […] which increases the EC50 value for AII by a factor of two. Each test antagonist was evaluated in aorta rings from two rabbits.

[3] = system: pressor response to AII; test: Assay C: In vivo intragastric pressor assay response for AII antagonists; set-up: species or system Sprague-Dawley rats; conditions: in vivo pressor response; for inhibition in vivo at 10 mg/kg / inhibition in vivo at 30 mg/kg / inhibition in vivo at 100 mg/kg / inhibition in vivo at 3 mg/kg: Rattus norvegicus; for inhibition in vivo at 30 mg/kg: read-out: Assay C Inhibition
[4] = intraduodenal, 100 mg/kg intraduodenally
[5] = intraduodenal, 30 mg/kg intraduodenally
[6] = intraduodenal, 3 mg/kg intraduodenally

Row | SMILES | IC50 [1] | Kb [2] | inhibition in vivo at 3 mg/kg ([3]; po, 3 mg/kg intragastrically) | Assay C Duration ([3]; 3 mg/kg intragastrically) | further results
1 | C[C@]12CCC(=O)C=C1[C@@H]1CC1[C@H]1[C@@H]3CC[C@@]4(CCC(=O)O4)[C@@]3(C)CC3O[C@]312 (stereo partly shown) [Compound 3] | 5.4 nM | 2 nM |  |  | inhibition in vivo at 10 mg/kg ([3]; po, 10 mg/kg intragastrically): 50%; inhibition in vivo at 30 mg/kg ([3]; po, 30 mg/kg intragastrically): 100%; Assay C Duration ([3]; 10 mg/kg intragastrically): >180 min; Assay C Duration ([3]; 30 mg/kg intragastrically): 200^+ min.
2 | C[C@]12C=CC(=O)C=C1[C@@H]1CC1[C@H]1[C@@H]3CC[C@@]4(CCC(=O)O4)[C@@]3(C)CC3O[C@]312 (stereo partly shown) [Compound 6] | 1300 nM | 282 nM |  |  | inhibition in vivo at 100 mg/kg [3, 4]: 90%; Assay C Duration ([3]; 100 mg/kg intraduodenally): 120 min
3 | COC(=O)CC[C@]1(O)CC[C@H]2[C@@H]3C4CC4C4=CC(=O)CC[C@]4(C)[C@]34OC4C[C@@]21C (stereo partly shown) [Compound 7] | 84 nM | 9.77 nM |  |  | inhibition in vivo at 30 mg/kg [3, 5]: 90%; Assay C Duration ([3]; 30 mg/kg intraduodenally): 130 min
4 | CCCCc1nc(Cl)n(Cc2ccc(-c3ccccc3-c3nnn[nH]3)cc2)n1 [Compound 20] | 78000 nM | 1290 nM |  |  | inhibition in vivo at 100 mg/kg [3, 4]: 10%; Assay C Duration ([3]; 100 mg/kg intraduodenally): 45 min
5 | CCCCc1nc(CCC)n(Cc2ccc(-c3ccccc3-c3nnn[nH]3)cc2)n1 [Compound 26] | 3.2 nM | 0.148 nM |  |  | inhibition in vivo at 10 mg/kg ([3]; po, 10 mg/kg intragastrically): 50%; Assay C Duration ([3]; 10 mg/kg intragastrically): >180 min
6 | CCCCc1ncn(Cc2ccc(-c3ccccc3C(=O)O)cc2)n1 [Compound 30] | 22 nM | 18.6 nM |  |  | inhibition in vivo at 30 mg/kg [3, 5]: 50%; Assay C Duration ([3]; 30 mg/kg intraduodenally): >180 min
7 | CCCCc1nn(CC(OCc2ccccc2)c2ccccc2)c(=O)n1Cc1ccc(-c2ccccc2-c2nn[nH]n2)cc1 (stereo not shown) [Compound 108] | 720 nM | 5010 nM |  |  | inhibition in vivo at 100 mg/kg [3, 4]: 45%; Assay C Duration ([3]; 100 mg/kg intraduodenally): 90 min
8 | CCCCc1nn(CC(O)c2cc(OC)ccc2OC)c(=O)n1Cc1ccc(-c2ccccc2-c2nn[nH]n2)cc1 (stereo not shown) [Compound 109] | 250 nM | 50.1 nM |  |  | inhibition in vivo at 30 mg/kg [3, 5]: 50%; Assay C Duration ([3]; 30 mg/kg intraduodenally): 30 min
9 | CCCCc1nn(CCCCC(=O)OC)c(=O)n1Cc1ccc(-c2ccccc2-c2nn[nH]n2)cc1 [Compound 111] | 45 nM | 1 nM |  |  | inhibition in vivo at 30 mg/kg [3, 5]: 87%; Assay C Duration ([3]; 30 mg/kg intraduodenally): 160 min
10 | CCCCc1nn(C(C)(C)C(=O)c2ccccc2)c(=O)n1Cc1ccc(-c2ccccc2-c2nn[nH]n2)cc1 [Compound 113] | 12 nM | 3.98 nM |  |  | inhibition in vivo at 10 mg/kg ([3]; po, 10 mg/kg intragastrically): 60%; Assay C Duration ([3]; 10 mg/kg intragastrically): 180 min
11 | CCCCc1nn(CC2CC2)c(=O)n1Cc1ccc(-c2ccccc2-c2nn[nH]n2)cc1 [Compound 115] | 11 nM | 6.31 nM | 40% | >240 min | 
12 | CCCCc1nn(CC(OCC(=O)OCC)c2ccccc2)c(=O)n1Cc1ccc(-c2ccccc2-c2nn[nH]n2)cc1 (stereo not shown) [Compound 118] | 37 nM | 0.617 nM |  |  | inhibition in vivo at 10 mg/kg ([3]; intraduodenal, 10 mg/kg intraduodenally): 70%; Assay C Duration ([3]; 10 mg/kg intraduodenally): 120 min
13 | CCCCc1nc2cnncc2n1Cc1ccc(-c2ccccc2C(=O)O)cc1 [Compound 119] | 16 nM | 0.617 nM | 20% | 60 min | 
14 | CCCCc1nc2c(O)nnc(O)c2n1Cc1ccc(-c2ccccc2C(=O)O)cc1 [Compound 120] | 25 nM | 0.891 nM |  |  | inhibition in vivo at 10 mg/kg ([3]; po, 10 mg/kg intragastrically): 80%; Assay C Duration ([3]; 10 mg/kg intragastrically): 240 min
15 | CCCCc1cn(C2CCCCC2)c(=O)n1Cc1ccc(-c2ccccc2-c2nnn[nH]2)cc1 [Compound 147] | 5.8 nM | 2510 nM |  |  | inhibition in vivo at 3 mg/kg [3, 6]: 74%; Assay C Duration ([3]; 3 mg/kg intraduodenally): 5 to 10 min
16 | CCCCc1c(C)n(CCCC)c(=O)n1Cc1ccc(-c2ccccc2-c2nnn[nH]2)cc1 [Compound 148] | 0.87 nM | 1580 nM |  |  | inhibition in vivo at 3 mg/kg [3, 6]: 92%; Assay C Duration ([3]; 3 mg/kg intraduodenally): 20 to 30 min
17 | CCCCc1nc(CCCC)n(Cc2ccc(-n3c(Br)ccc3-c3nnn[nH]3)cc2)n1 [Compound 152] | 150 nM | 34.7 nM | 10% | 140 min | 
18 | CCCCc1nc(Cl)c(Cl)n1Cc1ccc(-n2cccc2C(=O)O)cc1 [Compound 158] | 54 nM | 5.89 nM | 30% | >180 min | 

Row | SMILES | IC50 [1] | Kb [2] | inhibition in vivo at 3 mg/kg ([3]; po, 3 mg/kg intragastrically) | Assay C Duration ([3]; 3 mg/kg intragastrically) | further results
19 | CCCCn1nc(-c2ccccc2Cl)nc1Cc1ccc(-c2ccccc2-c2nnn[nH]2)nc1 [Compound 169] | 150 nM | 16.6 nM | 15% | 180 min | 
20 | CCCn1nc(C(C)(F)F)nc1Cc1ccc(-c2ccccc2-c2nnn[nH]2)nc1 [Compound 176] | 9.8 nM | 20.4 nM | 10% | 150 min | 
21 | CCCn1nc(C(OC)OC)nc1Cc1ccc(-c2ccccc2-c2nnn[nH]2)nc1 [Compound 185] | 6.5 nM | 1.51 nM | 50% | >180 min | 
22 | CCCCn1nc(C=O)nc1Cc1ccc(-c2ccccc2-c2nnn[nH]2)nc1 [Compound 190] | 10 nM | 13.5 nM | 10% | 180 min | 
23 | CCCCn1nc(C2OCCCO2)nc1Cc1ccc(-c2ccccc2-c2nnn[nH]2)nc1 [Compound 191] | 81 nM | 17.8 nM | 10% | 180 min | 
24 | CCCn1cc(CC(C)C)n(Cc2ccc(-c3ccccc3-c3nnn[nH]3)nc2)c1=O [Compound 198] | 7.6 nM | 1.74 nM | 35% | >180 min | 
25 | CCCCn1cc(CC(C)C)n(Cc2ccc(-c3ccccc3-c3nnn[nH]3)nc2)c1=O [Compound 199] | 10 nM | 1.62 nM | 60% | >180 min | 
26 | CCCCCc1cn(CCCC)c(=O)n1Cc1ccc(-c2ccccc2-c2nnn[nH]2)nc1 [Compound 201] | 17 nM | 1.66 nM | 10% | 180 min | 
27 | CCCCn1cc(C2CCCCC2)n(Cc2ccc(-c3ccccc3-c3nnn[nH]3)nc2)c1=O [Compound 202] | 12 nM | 1.62 nM | 65% | >180 min | 
28 | CCCCn1cc(C2CCCC2)n(Cc2ccc(-c3ccccc3-c3nnn[nH]3)nc2)c1=O [Compound 203] | 9.2 nM | 3.72 nM | 50% | >180 min | 
29 | CCCCc1cn(C)c(=O)n1Cc1ccc(-c2ccccc2-c2nnn[nH]2)nc1 [Compound 205] | 20 nM | 0.724 nM | 40% | >180 min | 
30 | CCCCc1cn(CC)c(=O)n1Cc1ccc(-c2ccccc2-c2nnn[nH]2)nc1 [Compound 206] | 5.4 nM | 1.78 nM | 30% | >180 min | 
31 | CCCCc1cn(CCC(C)C)c(=O)n1Cc1ccc(-c2ccccc2-c2nnn[nH]2)nc1 [Compound 209] | 5 nM | 0.389 nM | 25% | >180 min | 
32 | CCCCCn1cc(CCCC)n(Cc2ccc(-c3ccccc3-c3nnn[nH]3)nc2)c1=O [Compound 210] | 3.6 nM | 4.37 nM | 15% | 180 min | 
33 | CCCCc1cn(C(C)C)c(=O)n1Cc1ccc(-c2ccccc2-c2nnn[nH]2)nc1 [Compound 211] | 18 nM | 1.82 nM | 35% | >180 min | 
34 | CCCCc1cn(C2CCCCC2)c(=O)n1Cc1ccc(-c2ccccc2-c2nnn[nH]2)nc1 [Compound 216] | 5.4 nM | 1.58 nM | 50% | >180 min | 
35 | CCCCc1cn(-c2c(Cl)cccc2Cl)c(=O)n1Cc1ccc(-c2ccccc2-c2nnn[nH]2)nc1 [Compound 232] | 4.4 nM | 2.57 nM | 70% | >180 min | 
